Active and inactive are the calls of the source. The calls are words filed in the database; no cut-off is given here.
Experiments:
[1] = system: A2780; experiment: Antiproliferative activity against human A2780 cells after 48 hrs by MTT assay; conditions: A2780, 48 h
[2] = system: HeLa; experiment: cells; conditions: Homo sapiens, 48 h
[3] = Antiproliferative activity against human A2780/CDDP cells after 48 hrs by MTT assay
[4] = system: A549; experiment: cells; conditions: Homo sapiens, A549, 48 h
[5] = system: HUVEC; experiment: cells; conditions: Homo sapiens, 48 h
Description: Antiproliferative activity against HUVEC after 48 hrs by MTT assay

[6] = system: A2780; experiment: Induction of nitric oxide generation in human A2780 cells at 100 uM after 150 mins by Griess assay; assay type: functional
[7] = system: T29; experiment: Induction of nitric oxide generation in human T29 cells at 100 uM after 150 mins by Griess assay; assay type: functional, cell-based
[8] = system: A2780; experiment: Antitumor activity against human A2780 cells xenografted in BALB/C nude mouse at 30 mg/kg, ip administered once every 3 days measured on day 15 relative to vehicle-treated control; assay type: functional; conditions: route intraperitoneal, read-out: TGI
[9] = system: MDA-MB-231; experiment: Anticlonogenic activity against human gemcitabine-resistant human MDA-MB-231 cells assessed as inhibition of colony formation of cells after 48 hrs by gentian violet staining-based assay; assay type: functional, cell-based
[10] = Antiproliferative activity against cisplatin-resistant human SKOV3 cells after 48 hrs by MTT assay; conditions: SK-OV-3, 48 h
[11] = Acute toxicity in KM mouse assessed as survival at 250 mg/kg, ip measured on day 14 relative to vehicle-treated control; assay type: organism-based; design: dose 250 mg/kg, route intraperitoneal; conditions: in vivo
[12] = system: A2780; experiment: Cell cycle arrest in human A2780 cells assessed as accumulation at G2/M phase at 20 to 80 nM after 24 hrs by propidium iodide staining-based flow cytometry; assay type: functional
[13] = system: A2780; experiment: Cell cycle arrest in human A2780 cells assessed as reduction at G0/G1 phase at 20 to 80 nM after 24 hrs by propidium iodide staining-based flow cytometry; assay type: functional
[14] = system: A2780; experiment: Induction of apoptosis in human A2780 cells assessed as increase in p53 phosphorylation at 100 to 1000 nM after 24 hrs by Western blotting analysis; assay type: functional, cell-based
[15] = system: A2780; experiment: Induction of apoptosis in human A2780 cells assessed as late apoptotic cells at 20 to 80 nM after 24 hrs by annexin-V/propidium iodide staining-based flow cytometry; assay type: functional
[16] = Acute toxicity in KM mouse assessed as survival at 275 mg/kg, ip measured on day 14 relative to vehicle-treated control; assay type: organism-based; design: dose 275 mg/kg, route intraperitoneal; conditions: in vivo
[17] = system: A2780; experiment: Cell cycle arrest in human A2780 cells assessed as reduction at S phase at 20 to 80 nM after 24 hrs by propidium iodide staining-based flow cytometry; assay type: functional
[18] = system: HUVEC; experiment: Antiangiogenic activity against HUVEC assessed as suppression of tubule formation at 10 nM after overnight incubation by matrigel assay; assay type: functional, cell-based; conditions: Homo sapiens
[19] = system: MDA-MB-231; experiment: Anticlonogenic activity against human gemcitabine-resistant human MDA-MB-231 cells assessed as inhibition of colony formation of cells at 20 to 80 nM after 48 hrs by gentian violet staining-based assay; assay type: functional, cell-based
[20] = system: A2780/CDDP; experiment: Induction of nitric oxide generation in human A2780/CDDP cells at 500 nM after 24 hrs by Griess assay in presence of hemoglobin; assay type: functional, cell-based
[21] = system: A2780; experiment: Induction of apoptosis in human A2780 cells assessed as early apoptotic cells at 20 to 80 nM after 24 hrs by annexin-V/propidium iodide staining-based flow cytometry; assay type: functional
[22] = system: A2780; experiment: Induction of apoptosis in human A2780 cells assessed as increase in Bax protein expression after 24 hrs by Western blotting analysis; assay type: functional, cell-based
[23] = Acute toxicity in KM mouse assessed as survival at 200 mg/kg, ip measured on day 14 relative to vehicle-treated control; assay type: organism-based; design: dose 200 mg/kg, route intraperitoneal; conditions: in vivo
[24] = Acute toxicity in KM mouse assessed as survival at 300 mg/kg, ip measured on day 14 relative to vehicle-treated control; assay type: organism-based; design: dose 300 mg/kg, route intraperitoneal; conditions: in vivo
[25] = system: A2780; experiment: Induction of nitric oxide generation in human A2780 cells at 500 nM after 24 hrs by Griess assay in presence of hemoglobin; assay type: functional, cell-based
[26] = system: A2780; experiment: Induction of apoptosis in human A2780 cells assessed as reduction in Bcl-2 protein expression after 24 hrs by Western blotting analysis; assay type: functional, cell-based
[27] = system: A2780; experiment: Antitumor activity against human A2780 cells xenografted in BALB/C nude mouse at 15 mg/kg, ip administered once every 3 days measured on day 15 relative to vehicle-treated control; assay type: functional; conditions: route intraperitoneal, read-out: TGI
[28] = Antiproliferative activity against human SKOV3 cells after 48 hrs by MTT assay; conditions: SK-OV-3, 48 h
[29] = Acute toxicity in KM mouse assessed as survival at 500 mg/kg, ip measured on day 14 relative to vehicle-treated control; assay type: organism-based; design: dose 500 mg/kg, route intraperitoneal; conditions: in vivo
[30] = Antiproliferative activity against human T29 cells after 48 hrs by MTT assay; conditions: T29, 48 h
[31] = system: A2780; experiment: Anticlonogenic activity against human A2780 cells assessed as inhibition of colony formation of cells after 48 hrs by gentian violet staining-based assay; assay type: functional, cell-based
[32] = system: A2780; experiment: Cell cycle arrest in human A2780 cells assessed as accumulation at G2/M phase after 24 hrs by propidium iodide staining-based flow cytometry; assay type: functional
[33] = system: HUVEC; experiment: Antiangiogenic activity against HUVEC assessed as disruption of tubule formation at 100 nM after overnight incubation by matrigel assay; assay type: functional, cell-based; conditions: Homo sapiens
[34] = system: A2780; experiment: Anticlonogenic activity against human A2780 cells assessed as inhibition of colony formation of cells at 5 to 20 nM after 48 hrs by gentian violet staining-based assay; assay type: functional, cell-based
[35] = system: A2780; experiment: Induction of apoptosis in human A2780 cells assessed as increase in PARP-1 cleavage at 100 to 1000 nM after 24 hrs by Western blotting analysis; assay type: functional, cell-based
[36] = Acute toxicity in KM mouse assessed as survival at 225 mg/kg, ip measured on day 14 relative to vehicle-treated control; assay type: organism-based; design: dose 225 mg/kg, route intraperitoneal; conditions: in vivo
[37] = system: A2780; experiment: Antitumor activity against human A2780 cells xenografted in BALB/C nude mouse assessed as loss in tumor weight at 15 to 30 mg/kg, ip administered once every 3 days measured after 15 days relative to vehicle-treated control; assay type: functional, organism-based
[38] = Acute toxicity in ip dosed KM mouse; assay type: organism-based; conditions: in vivo
[39] = system: A2780; experiment: Induction of nitric oxide generation in human A2780 cells after 1 hr by DAF-FM DA staining-based assay; assay type: functional, cell-based
[40] = system: A2780; experiment: Induction of nitric oxide generation in human A2780 cells at 100 to 1000 nM after 1 hr by DAF-FM DA staining-based assay; assay type: functional, cell-based

**Q.** With O=c1ccc2ccc(Oc3no[n+]([O-])c3S(=O)(=O)c3ccccc3)cc2o1 as the compound, how does the IC50 [1] read?
**A.** 110 nM

**Q.** What about the IC50 [2] of the same compound?
**A.** 4550 nM

**Q.** What about the IC50 [3] of the same compound?
**A.** 3440 nM

**Q.** What about the IC50 [4] of the same compound?
**A.** 8860 nM

**Q.** What about the IC50 [5] of the same compound?
**A.** 6750 nM

**Q.** Which IC50 [1] does the source give for Cc1cc(=O)oc2cc(N(C)CCOc3no[n+]([O-])c3S(=O)(=O)c3ccccc3)ccc12 here?
**A.** 950 nM

**Q.** What about the IC50 [2] of the same compound?
**A.** 510 nM

**Q.** And the IC50 [3]?
**A.** 2380 nM

**Q.** And the IC50 [4]?
**A.** 1020 nM

**Q.** And the IC50 [5]?
**A.** 890 nM

**Q.** With CCc1cc(=O)c2ccc(OCCCOc3no[n+]([O-])c3S(=O)(=O)c3ccccc3)cc2o1 as the compound, how does the IC50 [1] read?
**A.** 290 nM

**Q.** And the IC50 [2]?
**A.** 190 nM

**Q.** And the IC50 [3]?
**A.** 890 nM

**Q.** And the IC50 [4]?
**A.** 400 nM

**Q.** And the IC50 [5]?
**A.** 350 nM

**Q.** Which results are given for Cc1cc(=O)oc2cc(Sc3cccc(Cl)n3)ccc12?
**A.** IC50 [1]: 1350 nM; IC50 [2]: 1480 nM; IC50 [3]: 1000 nM; IC50 [4]: 3250 nM; IC50 [5]: 5890 nM; Activity [6]: inactive

**Q.** For O=S(=O)(c1ccccc1)c1no[n+]([O-])c1S(=O)(=O)c1ccccc1, which IC50 [1] is on record?
**A.** 880 nM

**Q.** And the IC50 [2]?
**A.** 1450 nM

**Q.** What about the IC50 [3] of the same compound?
**A.** 890 nM

**Q.** And the IC50 [4]?
**A.** 2350 nM

**Q.** And the IC50 [5]?
**A.** 4330 nM

**Q.** Which results are given for O=C(COc1ccc2ccc(=O)oc2c1)OCCOc1no[n+]([O-])c1S(=O)(=O)c1ccccc1?
**A.** IC50 [1]: > 20000 nM; IC50 [2]: > 20000 nM; IC50 [3]: > 20000 nM; IC50 [4]: > 20000 nM; IC50 [5]: > 20000 nM

**Q.** For Cc1cc(=O)oc2cc(OCCCCOc3no[n+]([O-])c3S(=O)(=O)c3ccccc3)ccc12, which IC50 [1] is on record?
**A.** 660 nM

**Q.** And the IC50 [2]?
**A.** 320 nM

**Q.** What about the IC50 [3] of the same compound?
**A.** 990 nM

**Q.** What about the IC50 [4] of the same compound?
**A.** 650 nM

**Q.** What about the IC50 [5] of the same compound?
**A.** 250 nM

**Q.** What does the source list for Cc1cc(=O)oc2cc(OCCOc3no[n+]([O-])c3S(=O)(=O)c3ccccc3)ccc12?
**A.** Activity [7]: Active; inhibition in vivo at 30 mg/kg [8]: 65.5%; IC50 [1]: 14 nM; inhibition [9]: Dose-dependent effect; IC50 [10]: 140 nM; survival at 14 day [11]: 60%; IC50 [2]: 53 nM; Activity [12]: 64.9%; Activity [13]: Active; Activity [14]: Active; Activity [15]: 2.5%; survival at 14 day [16]: 40%; Activity [17]: Active; Activity [18]: Active; inhibition [19]: Active; IC50 [3]: 62 nM; IC50 [4]: 24 nM; Activity [20]: inactive; Activity [21]: 2.5%; Activity [22]: Dose-dependent effect; survival at 14 day [23]: 100%; survival at 14 day [24]: 30%; Activity [25]: inactive; Activity [26]: Dose-dependent effect; inhibition in vivo at 15 mg/kg [27]: 55.8%; IC50 [28]: 83 nM; IC50 [5]: 34 nM; Activity [6]: 97 µM; survival at 14 day [29]: 10%; IC50 [30]: 14 nM; inhibition [31]: Dose-dependent effect; Activity [32]: Dose-dependent effect; Activity [33]: Active; inhibition [34]: Active; Activity [35]: Active; survival at 14 day [36]: 90%; Activity [37]: Active; LD50 [38]: 264 mg/kg; Activity [39]: Dose-dependent effect; Activity [40]: Active

**Q.** For Cc1cc(=O)oc2cc(OCC(=O)OCCOc3no[n+]([O-])c3S(=O)(=O)c3ccccc3)ccc12, which IC50 [1] is on record?
**A.** 3650 nM

**Q.** What about the IC50 [2] of the same compound?
**A.** 4310 nM

**Q.** What about the IC50 [3] of the same compound?
**A.** 7360 nM

**Q.** And the IC50 [4]?
**A.** 6920 nM

**Q.** What about the IC50 [5] of the same compound?
**A.** > 20000 nM

**Q.** Which results are given for Cc1cc(=O)oc2cc(SCCOc3no[n+]([O-])c3S(=O)(=O)c3ccccc3)ccc12?
**A.** IC50 [1]: 36 nM; IC50 [2]: 24 nM; IC50 [3]: 140 nM; IC50 [4]: 120 nM; IC50 [5]: 220 nM

**Q.** Which IC50 [1] does the source give for CCOC(=O)N1CCN(/[N+]([O-])=N/Oc2ccc([N+](=O)[O-])cc2[N+](=O)[O-])CC1 here?
**A.** 630 nM

**Q.** What about the IC50 [2] of the same compound?
**A.** 3560 nM

**Q.** What about the IC50 [3] of the same compound?
**A.** 1050 nM

**Q.** And the IC50 [4]?
**A.** 1260 nM

**Q.** And the IC50 [5]?
**A.** 5390 nM

**Q.** And the Activity [6]?
**A.** 48 µM

**Q.** And the Activity [40]?
**A.** Active
